Test results from PMC6344228 (Cell Chemical Biology, 2019).
Values joined by “and” are separate entries in the source; they are usually repeats but may differ in a detail not shown here. Identical values can stand only once. Like-named read-outs stand apart in the source and are kept apart here.

Legend:
monomeric CDK1 = target: T1, monomeric CDK1 (Homo sapiens, UniProt P06493); experiment: Differential scanning fluorimetry (DSF), CDK1; type: binding; details: read-out: ΔTm CDK1
T1 construct: Full-length human CDK1 was expressed in insect cells either untagged (from pVL1393) or as a 3C-protease cleavable GST fusion; GST (N, cleaved yes); made in house; host or cells: insect cells (Sf9 baculovirus)
T1 sequence (P06493 whole entry, the tested form may be a part): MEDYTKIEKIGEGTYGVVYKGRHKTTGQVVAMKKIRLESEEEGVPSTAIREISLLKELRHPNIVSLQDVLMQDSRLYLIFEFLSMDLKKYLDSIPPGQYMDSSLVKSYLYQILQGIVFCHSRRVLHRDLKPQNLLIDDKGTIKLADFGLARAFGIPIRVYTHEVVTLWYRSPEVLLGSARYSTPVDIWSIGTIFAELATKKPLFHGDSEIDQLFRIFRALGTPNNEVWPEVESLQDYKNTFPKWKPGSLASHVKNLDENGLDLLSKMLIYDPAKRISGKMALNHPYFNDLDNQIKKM
Description: (§1) The stability of the CDK1 and CDK2 inhibitor complexes were assessed by differential scanning fluorimetry (DSF) using a ViiA7 Real-Time PCR system (Applied Biosystems). Purified CDK1 (4 μM) and CDK2 (6 uM) in their respective gel filtration buffers were assayed in the presence of 10 μM inhibitor in 8% DMSO, in triplicate, in a 384-well plate. […] The resulting data was plotted and the inflection point (Tm) calculated using the Boltzmann equation in Applied Biosystems software.

CDK1-cyclin B [1] = details: read-out: IC50 Published measurements CDK1B; scintillation proximity assay; ref Whittaker et al., 2017; Byth et al., 2009; cited from earlier work
monomeric CDK2 = target: T2, monomeric CDK2 (Homo sapiens, UniProt P24941); experiment: biochemical; type: binding; details: DSF; phosphorylated monomeric CDK2; 10 μM inhibitor
T2 construct: Human CDK2 (encompassing full length residues 1-298); GST (N, cleaved yes); made in house; host or cells: E. coli
Description: as §1

CDK1-cyclin B [2] = details: radiolabelled γ33P-ATP kinase assay, read-out: IC50 Published measurements CDK1B, cited from earlier work
[3] = target: T3, GST-tagged unphosphorylated CDK1 (Homo sapiens, UniProt P06493); experiment: biochemical; type: binding; details: unphosphorylated monomeric GST-CDK1; 20°C; duplicate, ± SD; read-out: SPR Kd CDK1
T3 construct: Full-length human CDK1 was expressed in insect cells either untagged (from pVL1393) or as a 3C-protease cleavable GST fusion; made in house; host or cells: insect cells (Sf9 baculovirus)
T3 sequence (P06493 whole entry, the tested form may be a part): as above
Description: (§2) SPR ligand interactions assays were performed on a Biacore S200 (GE Healthcare Life Sciences) at 20°C using multi-cycle settings. GST-tagged unphosphorylated CDK1 and CDK2 were immobilised onto the surface of a CM5 chip pre-immobilised with anti-GST antibody, provided as part of the GST-capture kit (GE Healthcare Life Sciences, catalogue number BR100223) following the GST immobilisation kit instructions. As a control, recombinant GST was immobilised onto the designated control flow cell. […] Preceding injection of each compound, three cycles of buffer injections were carried out over all surfaces (30 μL/min for 60 s with 360 s dissociation). Compounds were then injected over all surfaces (from low to high concentration) for 60 s at 30 μL/min before being allowed to dissociate for 360 s to record dose-responses. […] The experiment was conducted in SPR running buffer (20 mM HEPES, 150 mM NaCl, 0.01% Tween-20®, 1% DMSO, pH 7.4) and used an 8-point DMSO solvent correction (preparation of DMSO in DMSO-free SPR buffer to final concentrations of: 0.2%, 0.4%, 0.6%, 0.8% 1%, 1.2%, 1.4%, 1.6%) to account for any bulk flow interactions.

[4] = target: T4, GST-tagged unphosphorylated CDK2 (Homo sapiens, UniProt P24941); experiment: biochemical; type: binding; details: unphosphorylated monomeric GST-CDK2; 20°C; duplicate, ± SD; read-out: SPR Kd CDK2
T4 construct: Human CDK2 (encompassing full length residues 1-298); made in house; host or cells: E. coli BL21(DE3)STAR
Description: as §2

CDK1-cyclin B [5] = target: T5, CDK1-cyclin B (Homo sapiens, UniProt P06493); experiment: biochemical; details: ADP-Glo, 20 μM ATP, 20 μM peptide, 4 nM CDK1-cyclin B
T5 construct: Full-length human CDK1 was expressed in insect cells either untagged (from pVL1393) or as a 3C-protease cleavable GST fusion; GST (N, cleaved yes); made in house; host or cells: CDK1: insect cells (Sf9 baculovirus); cyclin B1: E. coli
T5 sequence (P06493 whole entry, the tested form may be a part): as above
T5 sequence (P14635 with tags, fused parts or gaps C167S/C238S/C350S partner limits assumed): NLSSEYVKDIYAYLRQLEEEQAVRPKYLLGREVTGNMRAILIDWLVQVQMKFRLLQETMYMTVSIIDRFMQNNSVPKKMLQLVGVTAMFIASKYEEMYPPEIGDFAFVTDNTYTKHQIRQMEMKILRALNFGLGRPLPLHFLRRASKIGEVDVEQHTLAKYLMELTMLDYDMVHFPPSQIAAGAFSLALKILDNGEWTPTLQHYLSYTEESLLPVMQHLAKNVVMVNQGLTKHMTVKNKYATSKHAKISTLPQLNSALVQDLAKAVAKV
Description: (§3) Briefly, the 5 inhibitors in the study were titrated against phosphorylated CDK2–cyclin A and CDK1–cyclin B, with reaction initiated through addition of ATP and substrate peptide HHASPRK (Enzo Scientific). ATP to ADP conversion was assessed using the ADP-Glo assay (Promega) essentially as described by the manufacturers. […] Reactions were initiated by the addition of 20 μM ATP and 20 μM peptide. All activity assays were performed in triplicate in white low volume 384-well plates using a PheraStar plate reader (BMG).

CDK2-cyclin A [6] = target: T6, CDK2-cyclin A (Homo sapiens, UniProt P24941); experiment: biochemical; parameters: Human CDK2 (encompassing full length residues 1-298); GST (N, cleaved yes); made in house; host or cells: E. coli; details: ADP-Glo, 20 μM ATP, 20 μM peptide, 1.5 nM CDK2-cyclin A
Description: as §3

CDK2-cyclin A [7] = target: T6, CDK2-cyclin A; experiment: biochemical; type: binding; parameters: Human CDK2 (encompassing full length residues 1-298); GST (N, cleaved yes); made in house; host or cells: E. coli (CDK2 and cyclin A2); details: phosphorylated CDK2-cyclin A complex; 30°C; n = 2, ± SD; read-out: ITC Kd CDK2A
Description: (§4) Individual protein samples were exchanged into ITC buffer (40 mM HEPES, 500 mM NaCl, 0.25 mM TCEP, pH 8.0) at 4°C using a Hitrap desalting column (GE Healthcare Life Sciences, Chicago, IL, USA) (i.e. CDK1 and cyclin B were not combined to form a complex prior to buffer exchange). Protein concentration was then determined at A280 nm using a Nanodrop 2000 (Thermoscientific, Waltham, MA, USA) and sequence derived extinction coefficients (http://web.expasy.org/protparam/). Proteins and compounds were degassed at 30°C directly before analysis. Compounds at 100 μM prepared in ITC buffer (40 mM HEPES, 500 mM NaCl, 0.25 mM TCEP, pH 8.0) and to a final DMSO concentration of 1% were titrated into 200 μL protein solutions prepared at 10 μM, 1% DMSO in the cell. All experiments used phosphorylated forms of CDK1 and CDK2 (on T161 or T160 respectively). For experiments carried out in the absence of cyclin, proteins were prepared on ice to a final concentration of 10 μM in ITC buffer and supplemented with 1% DMSO.

[8] = target: T7, phosphorylated monomeric CDK2 (Homo sapiens, UniProt P24941); experiment: biochemical; type: binding; details: phosphorylated monomeric (cyclin-free) CDK2; 30°C; n = 2, ± SD; read-out: ITC Kd CDK2
T7 construct: Human CDK2 (encompassing full length residues 1-298); GST (N, cleaved yes); made in house; host or cells: E. coli
Description: as §4

[9] = target: T8, phosphorylated monomeric CDK1 (Homo sapiens, UniProt P06493); experiment: biochemical; type: binding; details: phosphorylated monomeric (cyclin-free) CDK1; 30°C; n = 2, ± SD; read-out: ITC Kd CDK1
T8 construct: Full-length human CDK1 was expressed in insect cells either untagged (from pVL1393) or as a 3C-protease cleavable GST fusion; GST (N, cleaved yes); made in house; host or cells: insect cells (Sf9 baculovirus)
T8 sequence (P06493 whole entry, the tested form may be a part): as the sequence (P06493 whole entry, the tested form may be a part) above
Description: as §4

CDK1-cyclin B [10] = target: T5, CDK1-cyclin B; experiment: biochemical; type: binding; details: phosphorylated CDK1-cyclin B complex; 30°C; n = 2, ± SD; read-out: ITC Kd CDK1B
Description: as §4

CDK2-cyclin A [11] = details: radiolabelled γ33P-ATP kinase assay; ref Lane et al., 2001; read-out: IC50 Published measurements CDK2A; cited from earlier work
[12] = DSF, phosphorylated monomeric CDK1, 10 μM inhibitor

Cc1ncc(-c2ccnc(Nc3ccc(S(C)(=O)=O)cc3)n2)n1C(C)C [AZD5438]
ΔTm at 10 µM (monomeric CDK1; [12]): -2.6 °C
IC50 (CDK1-cyclin B [1]): 16 nM

CN1CC[C@H](c2c(O)cc(O)c3c(=O)cc(-c4ccccc4Cl)oc23)[C@H](O)C1 [Alvocidib]
ΔTm at 10 µM (monomeric CDK1; [12]): 0.9 °C
ΔTm at 10 µM (monomeric CDK2): 7.3 °C

CCn1cnc2c(Nc3cccc(Cl)c3)nc(NC3CCCCC3N)nc21 (stereo not shown) [CGP74514A]
ΔTm at 10 µM (monomeric CDK1): -3.3 °C
Kd [3]: 13500 nM
Kd [4]: 312 ± 52 nM
ΔTm at 10 µM (monomeric CDK2): 5.2 °C
IC50 (CDK1-cyclin B [5]; read-out: IC50 Lab measurements CDK1B): 833 nM
Ki (CDK1-cyclin B [5]; read-out: Ki (in parenthesis) Lab measurements CDK1B): 463 nM
IC50 (CDK2-cyclin A [6]; read-out: IC50 Lab measurements CDK2A): 33 nM
Ki (CDK2-cyclin A [6]; read-out: Ki (in parenthesis) Lab measurements CDK2A): 18.3 nM
IC50 (CDK1-cyclin B [2]; ref Imbach et al., 1999): 25 nM
Kd (CDK2-cyclin A [7]): 224 ± 14 nM
Kd [8]: 715 ± 15 nM
Kd [9]: > 20000 nM
Kd (CDK1-cyclin B [10]): 950 ± 50 nM
